pIC50: −log10 of the molar value.
Columns and labels:
[1] = molecular target: T1, 5α-reductase 2 (Homo sapiens, UniProt P31213); test: Inhibition of type 2 5α-reductase (14C-testosterone to DHT conversion, lysate of transfected COS7 cells); type: biochemical; details: for pIC50: pH 5.5 citrate buffer, 1 nM 14C-testosterone, 5 mM NADPH, 50 minutes at 37° C., read-out: 5α-reductases: IC50 Type II; for specificity for the type 2 5α-reductase (in words): type 2 versus type 1
T1 construct: made in house; host or cells: COS7 cells (ATCC, CRL 1651), transient transfection with pSG5; 100,000 x g pellet of the lysate
T1 sequence (P31213 1-254): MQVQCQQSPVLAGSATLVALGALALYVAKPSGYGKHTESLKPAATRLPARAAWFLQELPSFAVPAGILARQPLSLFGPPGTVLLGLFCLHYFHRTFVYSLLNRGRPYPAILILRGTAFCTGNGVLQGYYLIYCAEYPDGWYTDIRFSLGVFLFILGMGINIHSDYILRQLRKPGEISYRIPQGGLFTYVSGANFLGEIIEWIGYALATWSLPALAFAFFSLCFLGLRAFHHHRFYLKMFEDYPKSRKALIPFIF
Description: (§1) The coding sequences (complementary deoxyribonucleic acids: cDNA) of 5α-reductase 1 and of 5α-reductase 2 were cloned in the eukaryotic expression vector pSG5 (Stratagene). The enzymes were over-expressed after transient transfection of COS7 cells (ATCC, CRL 1651). The cDNAs of 5α-reductase 1 and of 5α-reductase 2 were obtained by reverse transcription and polymerase chain reaction (PCR) using specific primers, starting with total RNA from human testicles (sold by the company Clontech).
The primers used to obtain the 5α-reductase 2 cDNA are:
+ strand: 5′ GCGATGCAGGTTCAGTG 3′
− strand: 5′ ATTGTGGGAGCTCTGCT 3′.
(§2) By standard genetic engineering techniques, the 5α-reductase 1 cDNA obtained was inserted into the BamHI site of pSG5 and that of 5α-reductase 2 was inserted into the EcoRI site (see Maniatis et al., Molecular Cloning, Cold Spring Harbor, 1989).
(§3) The positive clones (recombinants) were identified by the hybridization technique with a cold probe (Plex luminescent kits, Millipore) and mapped by enzymatic digestions and partial sequencing.
(§4) After transient transfection, the COS7 cells are lysed in a 10 mM Tris-HCl, pH=7/150 mM KCl/1 mM EDTA buffer by 3 cycles of freezing/thawing. The homogenate is centrifuged at 100,000× g for 1 hour. The pellets containing the 5α-reductase 1 or the 5α-reductase 2 are taken up in a 40 mM, pH 6.5 phosphate buffer or a 40 mM, pH 5.5 citrate buffer for the 5α-reductase 1 or 5α-reductase 2, respectively.
(§5) 5 μg of proteins thus obtained are incubated in a well of a 96-well plate (NUNC) in the presence of 1 nM ^14C-testosterone (Amersham) and 5 mM nicotinamide […] dinucleotide phosphate, reduced form (NADPH) (Sigma) in the corresponding buffer (40 mM, pH 6.5 phosphate buffer or 40 mM, pH 5.5 citrate buffer for the 5α-reductase 1 or 5α-reductase 2, respectively) for 50 minutes at 37° C. after addition of the test products. The test products are added at concentrations of 10^−4 M to 10^−10 M, diluted in 40 mM, pH 6.5 phosphate buffer or 40 mM, pH 5.5 citrate buffer for the 5α-reductase 1 or 5α-reductase 2, respectively.
(§6) The reaction mixtures are then placed directly on a silica plate (HPTLC, 60F 254, Merck) and subjected to chromatography (solvent=10% diethyl ether, 90% dichloromethane). They are then analysed by digital autoradiography (Berthold).
(§7) The inhibition of the activity of the isoenzymes is measured by calculating the percentage of dihydrotestosterone formed from ^14C-testosterone relative to an untreated control.

[2] = molecular target: T2, 5α-reductase 1 (Homo sapiens, UniProt P18405); test: Inhibition of type 1 5α-reductase (14C-testosterone to DHT conversion, lysate of transfected COS7 cells); type: biochemical; details: for pIC50: pH 6.5 phosphate buffer, 1 nM 14C-testosterone, 5 mM NADPH, 50 minutes at 37° C., read-out: 5α-reductases: IC50 Type I; for quality as inhibitor of 5α-reductase (in words): statement covers both types of 5α-reductase; for specificity with respect to type 1 5α-reductase (in words): type 1 versus type 2
T2 construct: made in house; host or cells: COS7 cells (ATCC, CRL 1651), transient transfection with pSG5; 100,000 x g pellet of the lysate
T2 sequence (P18405 1-259): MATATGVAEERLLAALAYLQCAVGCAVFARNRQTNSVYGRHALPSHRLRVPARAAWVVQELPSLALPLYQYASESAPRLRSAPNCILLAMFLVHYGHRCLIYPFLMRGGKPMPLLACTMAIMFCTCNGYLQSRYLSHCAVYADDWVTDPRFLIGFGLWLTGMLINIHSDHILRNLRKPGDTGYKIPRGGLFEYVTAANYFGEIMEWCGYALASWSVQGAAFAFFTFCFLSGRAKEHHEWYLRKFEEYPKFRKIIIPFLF
Description: as §1
The primers used to obtain the 5α-reductase 1 cDNA are:
+ strand: 5′ […] 3′,
− strand: 5′ […] 3′.
as §2, §3, §4, §5, §6, §7

SMILES | pIC50 [1] | pIC50 [2] | quality as inhibitor of 5α-reductase (in words) [2] | specificity with respect to type 1 5α-reductase (in words) [2] | specificity for the type 2 5α-reductase (in words) [1]
COc1ccc(COc2cc3cc(C(=O)O)[nH]c3cc2OC)cc1 [Example 5, 5-(4-methoxybenzyloxy)-6-methoxy-1H-indole-2-carboxylic acid] | 8.00 | 5.30 to 6.00 | very good inhibitors of the two types of 5α-reductase |  | 
O=C(O)c1cc2c(ccc3ccccc32)[nH]1 [Example 7, 3H-benz[e]indole-2-carboxylic acid] | 5.22 | 5.52 |  | pronounced specificity with respect to type 1 5α-reductase | 
COc1cc(OCc2ccccc2)c2cc(C(=O)O)[nH]c2c1 [Example 1, 4-benzyloxy-6-methoxy-1H-indole-2-carboxylic acid] | < 4.00 | 5.40 to 6.00 |  | very pronounced specificity with respect to type 1 5α-reductase | 
COc1cc2[nH]c(C(=O)O)cc2cc1OCc1ccccc1 [a, 5-benzyloxy-6-methoxy-1H-indole-2-carboxylic acid] | 9.00 | 6.00 | very good inhibitors of the two types of 5α-reductase |  | 
COc1cc(OCc2cc(C(F)(F)F)cc(C(F)(F)F)c2)c2cc(C(=O)O)[nH]c2c1 [Example 2, 4-[3,5-bis(trifluoromethyl)benzyloxy]-6-methoxy-1H-indole-2-carboxylic acid] | < 4.00 | 5.00 |  | very pronounced specificity with respect to type 1 5α-reductase | 
Cn1c(C(=O)O)cc2c3ccccc3ccc21 [Example 8, 3-methyl-3H-benz[e]indole-2-carboxylic Acid] | 5.00 | 6.30 |  | pronounced specificity with respect to type 1 5α-reductase | 
Cc1c(C(=O)O)[nH]c2cc(OCc3ccccc3)c(OCc3ccccc3)cc12 [Compound b, 5,6-bis(benzyloxy)-3-methyl-1H-indole-2-carboxylic acid] | 6.00 | < 4.00 | moderate inhibitor | more pronounced specificity for the type 1 5α-reductase | 
COc1cc2[nH]c(C(=O)O)cc2cc1OCc1cc(OC)c(OC)c(OC)c1 [Example 4, 5-(3,4,5-trimethoxybenzyloxy)-6-methoxy-1H-indole-2-carboxylic acid] | 8.00 | < 4.00 |  |  | more pronounced specificity for the type 2 5α-reductase
O=C(O)c1cc2cc(OCc3ccccc3)c(OCc3ccccc3)cc2[nH]1 [c, 5,6-bis(benzyloxy)-1H-indole-2-carboxylic acid] | 8.30 | < 4.00 |  |  | more pronounced specificity for the type 2 5α-reductase
COc1cc2[nH]c(C(=O)O)cc2cc1OCc1ccc(C#N)cc1 [Example 6, 5-(4-cyanobenzyloxy)-6-methoxy-1H-indole-2-carboxylic acid] | 7.40 | 5.30 | very good inhibitors of the two types of 5α-reductase |  | 
COc1cc2[nH]c(C(=O)O)cc2cc1OCc1cc(C(F)(F)F)cc(C(F)(F)F)c1 [Example 3, 5-[3,5-bis(trifluoromethyl)benzyloxy]-6-methoxy-1H-indole-2-carboxylic Acid] | 8.30 to 9.00 | 6.30 | very good inhibitors of the two types of 5α-reductase |  | 
